Test results as given in patent publication US12448371B2, “Inhibitor compounds” (Cincera Therapeutics Pty Ltd, priority 2019, dated 2025).

What was measured:
[1] = test system: Connective Tissue Growth Factor (CTGF) gene expression; assay: Real time quantitative PCR in TGFβ-stimulated human hepatic stellate cells (LX2) to detect CTGF gene expression; format: cell-based; conditions: CTGF mRNA in TGFβ-stimulated LX2 cells vs vehicle control; for inhibition at 5 µM: LX-2, 5 μM; for inhibition at 1 µM: LX-2, 1 μM; for inhibition at 10 µM: LX-2, 10 μM
Protocol: Real Time Quantitative Polymerase Chain Reaction in Human Hepatic Stellate Cells (LX2) to Detect Connective Tissue Growth Factor (CTGF) Gene Expression The hepatic stellate cell line, LX2 was maintained in DMEM (LifeTechnologies) with 2% heat-inactivated FBS, 100U penicillin (LifeTechnologies), 0.1 mg/mL streptomycin (LifeTechnologies), and 2 mM L-glutamine (LifeTechnologies) at 37° C. with 5% CO2. Cells were seeded into 6-well plates (200,000 cells per well, 2 mLs media) and grown overnight. The cells were changed to 2 mLs 0.5% FBS media for 24 hours prior to treatment. Treatments were added in 2 mLs fresh 0.5% FBS media (vehicle control, long/mL TGFβ alone (R&D Systems), 10 ng/mL TGFβ+inhibitors) and incubated for 24 hours. […] RNA was extracted using Qiagen RNeasy kit (cat #74104), according to manufacturer's instructions. RNA (1 μg) was used to generate cDNA using the Qiagen Quantitect Reverse Transcription Kit (cat #205311), and stored at -20° C. cDNA was diluted (1:25 final) and combined with Sybr Green (Qiagen cat #204143), forward and reverse primers (50 ng each) and run on Real Time PCR Thermocycler machine (RG-6000, Corbett) with the following PCR conditions: Hold 1: 50° C. for 2 min; Hold 2: 95° C. for 15 min; Cycling: 45 cycles of: 95° C. for 30 sec, 58° C. for 21 sec, 72° C. for 15 sec, Hold 3: 72° C. for 30 sec, Melt: 72° C. to 99° C. GAPDH primers (Forward: [NT]; Reverse: [NT] primers (Forward: [NT]; Reverse: [NT] primers available from Origene, cat #HP205671)].

Des1 (h) = target: T1, Des1 (h) (Homo sapiens, UniProt O15121); assay: Measurement of Dihydroceramide Desaturase-1 (Des-1) activity in intact Jurkat cells labeled with DhCer-C6-NBD (HPLC); format: cell-based; conditions: for IC50: intact Jurkat cells, given as concentration range, or <X / >X if measured at one concentration X only, read-out: Des1 (h) Jurkat IC50
T1 construct: endogenous in cells; host or cells: parental Jurkat cells
T1 sequence (O15121 1-323): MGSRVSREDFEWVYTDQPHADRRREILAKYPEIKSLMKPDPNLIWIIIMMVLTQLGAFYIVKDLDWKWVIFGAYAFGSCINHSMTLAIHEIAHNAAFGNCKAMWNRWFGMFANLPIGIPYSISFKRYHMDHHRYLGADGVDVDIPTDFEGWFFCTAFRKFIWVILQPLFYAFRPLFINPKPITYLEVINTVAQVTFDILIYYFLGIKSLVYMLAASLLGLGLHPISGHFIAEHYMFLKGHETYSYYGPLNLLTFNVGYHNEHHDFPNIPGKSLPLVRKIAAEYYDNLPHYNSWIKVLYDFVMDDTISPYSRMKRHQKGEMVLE
Procedure, shortened: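 Intact parental Jurkat cells in 0.5% serum medium were labelled with DhCer-C6-NBD; cells harvested at 500×g and ceramides extracted. NBD-labelled substrate and product resolved by C18 reverse-phase HPLC and quantified by fluorescence (ex 465/em 530 nm) as a measure of Des-1 activity.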

## N/C(=N\O)c1cnc(Nc2ncn(-c3ccc(C(F)(F)F)cn3)n2)cn1 [Compound 108, N′-Hydroxy-5-((1-(5-(trifluoromethyl)pyridin-2-yl)-1H-1,2,4-triazol-3-yl)amino)pyrazine-2-carboximidamide]
[1]
  inhibition at 5 µM: 40 to 50%
Des1 (h)
  IC50: < 1000 nM

## Cn1nc(Nc2ccc(/C(N)=N/O)nc2)cc1-c1ccc(C(F)(F)F)cn1 [Compound 109, N′-Hydroxy-5-((1-methyl-5-(5-(trifluoromethyl)pyridin-2-yl)-1H-pyrazol-3-yl)amino)picolinimidamide]
[1]
  inhibition at 5 µM: > 90%
Des1 (h)
  IC50: < 1000 nM

## N/C(=N\O)c1cnc(Nc2ccn(-c3ccc(C(F)(F)F)cc3)n2)cn1 [Compound 111, N′-Hydroxy-5-((1-(4-(trifluoromethyl)phenyl)-1H-pyrazol-3-yl)amino)pyrazine-2-carboximidamide]
[1]
  inhibition at 5 µM: > 90%
Des1 (h)
  IC50: < 1000 nM

## N/C(=N\O)c1cnc(Nc2ccn(-c3ccc(C(F)(F)F)cn3)n2)cn1 [Compound 112, N′-Hydroxy-5-((1-(5-(trifluoromethyl)pyridin-2-yl)-1H-pyrazol-3-yl)amino)pyrazine-2-carboximidamide]
[1]
  inhibition at 1 µM: > 90%
Des1 (h)
  IC50: < 1000 nM

## N/C(=N\O)c1ccc(Nc2cnn(-c3ccc(C(F)(F)F)cc3)c2)cn1 [Compound 113, N′-Hydroxy-5-((1-(4-(trifluoromethyl)phenyl)-1H-pyrazol-4-yl)amino)picolinimidamide]
[1]
  inhibition at 5 µM: > 90%
Des1 (h)
  IC50: < 1000 nM

## N/C(=N/O)c1ccc(Nc2cn(-c3ccc(C(F)(F)F)cn3)nn2)cn1 [Compound 115, N′-Hydroxy-5-((1-(5-(trifluoromethyl)pyridin-2-yl)-1H-1,2,3-triazol-4-yl)amino)picolinimidamide]
[1]
  inhibition at 5 µM: > 90%
Des1 (h)
  IC50: < 1000 nM

## N/C(=N\O)c1ccc(Nc2ncc(-c3ccc(OC(F)(F)F)cc3)o2)cn1 [Compound 118, N′-Hydroxy-5-((5-(4-(trifluoromethoxy)phenyl)oxazol-2-yl)amino)picolinimidamide]
[1]
  inhibition at 1 µM: 50 to 60%
  inhibition at 10 µM: 70 to 80%
Des1 (h)
  IC50: < 1000 nM

## N/C(=N\O)c1ccc(Nc2ncc(-c3ccc(C4CC4)cc3)o2)cn1 [Compound 120, 5-((5-(4-Cyclopropylphenyl)oxazol-2-yl)amino)-N′-hydroxypicolinimidamide]
[1]
  inhibition at 1 µM: 40 to 50%
  inhibition at 10 µM: 40 to 50%
Des1 (h); Jurkat cells, 1 μM
  inhibition at 1 µM: 10%
Des1 (h)
  IC50: > 1000 nM

## CN(O)C(=O)c1ccc(Nc2ncc(-c3ccc(C(F)(F)F)cc3)o2)cn1 [Example 20, N-Nydroxy-N-methyl-5-((5-(4-(trifluoromethyl)phenyl)oxazol-2-yl)amino)picolinamide]
[1]
  inhibition at 1 µM: 10 to 20%
  inhibition at 10 µM: 70 to 80%
Des1 (h)
  IC50: < 100 nM

## O=c1cc(Nc2ncc(-c3ccc(C(F)(F)F)cc3)o2)ccn1O [Example 23, 1-(Hydroxy)-4-((5-(4-(trifluoromethyl)phenyl)oxazol-2-yl)amino)pyridin-2(1H)-one]
[1]
  inhibition at 1 µM: 30 to 40%
  inhibition at 10 µM: > 90%
Des1 (h)
  IC50: 1 to 10 nM

## N/C(=N\O)c1ccc(Nc2ncn(-c3ccc(C(F)(F)F)cc3)n2)cn1 [Example 24, N′-Hydroxy-5-((1-(4-(trifluoromethyl)phenyl)-1H-1,2,4-triazol-3yl)amino)picolinimidamide]
[1]
  inhibition at 5 µM: 50 to 60%
Des1 (h)
  IC50: 10 to 100 nM

## Oc1cnc(Nc2ncc(-c3ccc(C(F)(F)F)cc3)o2)cc1O [Example 29, 6-((5-(4-(Trifluoromethyl)phenyl)oxazol-2-yl)amino)pyridine-3,4-diol]
[1]
  inhibition at 1 µM: > 90%
  inhibition at 10 µM: > 90%
Des1 (h)
  IC50: < 1000 nM

## N/C(=N\O)c1nnc(Nc2ncc(-c3ccc(C(F)(F)F)cc3)o2)cc1O [Example 42, N′,4-Dihydroxy-6-((5-(4-(trifluoromethyl)phenyl)oxazol-2-yl)amino)pyridazine-3-carboximidamide]
[1]
  inhibition at 1 µM: 10 to 20%
  inhibition at 10 µM: 40 to 50%
Des1 (h)
  IC50: 1 to 10 nM
